Laboratory results: US20250230171A1 (MOMA Therapeutics, Inc., priority 2023, published 2025)
Read-outs that look alike come from different tables or passages of the source.

Columns and labels:
[1] = molecular target: biotinylated Avi-POLθ[2-894] (Homo sapiens (Human), UniProt O75417); assay: POLθ ATPase assay (ADP-Glo); conditions: n=2, read-out: Biochemical ATPase ADPGlo IC50
[2] = system: DLD1 BRCA2 (−/−) cells; assay: 7-day cell viability assay (CellTiter-Glo), DLD1 BRCA2 (−/−); assay type: cell-based, human; conditions: n=2, read-out: Viability IC50 (uM) DLD1 BRCA2 null
In short: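 7-day growth assay in DLD1 cells with or without BRCA2; seeding densities chosen to keep log-linear growth. Compound: 10 uM top, 3-fold, 9 points. Endpoint: CTG ATP luminescence at RT.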

[3] = system: DLD1 WT cells; assay: 7-day cell viability assay (CellTiter-Glo), DLD1 parental (WT); assay type: cell-based, human; conditions: n=2
[4] = Homo sapiens, DLD-1, 168 h, 7-day viability
[5] = Homo sapiens, DLD-1, 168 h, 7-day CellTiter-Glo

Chain of biotinylated Avi-POLθ[2-894] (O75417 2-894): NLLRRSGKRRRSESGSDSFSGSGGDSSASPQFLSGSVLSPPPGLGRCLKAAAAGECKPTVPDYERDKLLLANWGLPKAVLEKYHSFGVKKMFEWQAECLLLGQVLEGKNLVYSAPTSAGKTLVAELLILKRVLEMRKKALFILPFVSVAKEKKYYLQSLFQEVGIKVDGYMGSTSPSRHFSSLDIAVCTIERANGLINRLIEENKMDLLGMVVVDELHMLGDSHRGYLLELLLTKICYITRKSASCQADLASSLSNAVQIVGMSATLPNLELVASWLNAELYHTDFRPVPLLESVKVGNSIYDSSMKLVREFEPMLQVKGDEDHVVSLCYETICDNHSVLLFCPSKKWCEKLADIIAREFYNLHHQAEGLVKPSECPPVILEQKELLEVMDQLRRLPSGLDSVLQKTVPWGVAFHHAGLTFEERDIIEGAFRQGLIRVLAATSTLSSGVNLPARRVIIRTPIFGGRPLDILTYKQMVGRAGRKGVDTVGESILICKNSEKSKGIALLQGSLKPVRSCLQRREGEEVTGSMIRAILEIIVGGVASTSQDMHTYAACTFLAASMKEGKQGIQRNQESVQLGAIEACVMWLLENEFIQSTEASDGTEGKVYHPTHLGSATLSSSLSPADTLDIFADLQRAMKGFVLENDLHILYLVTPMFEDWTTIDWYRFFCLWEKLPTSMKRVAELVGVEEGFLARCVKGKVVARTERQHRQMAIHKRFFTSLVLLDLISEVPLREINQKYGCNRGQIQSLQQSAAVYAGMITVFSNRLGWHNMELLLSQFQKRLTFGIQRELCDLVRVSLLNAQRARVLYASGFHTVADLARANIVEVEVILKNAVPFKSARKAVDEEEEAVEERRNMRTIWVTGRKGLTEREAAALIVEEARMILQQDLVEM

Row | Compound | IC50 [1] [nM] | IC50 [2, 4] [µM] | IC50 [3, 4] [µM] | IC50 [2, 5] [µM] | IC50 [3, 5] [µM] | also measured
1 | COc1ccccc1-c1cc(C)ncc1C(=O)Nc1nc2c(s1)C(=O)NCC2 | ≥ 900 | ≥ 2 | ≥ 10 |  |  | 
2 | COc1cnc(Cl)cc1-c1cc(C)ncc1C(=O)Nc1nc2c(s1)CN(C(=O)c1cccc(Cl)n1)C2 [Example 7, 2′-chloro-N-(5-(6-chloropicolinoyl)-5,6-dihydro-4H-pyrrolo[3,4-d]thiazol-2-yl)-5′-methoxy-6-methyl-[4,4′-bipyridine]-3-carboxamide] | 1 to 15 | 0.001 to 0.1 | 2 to 5 |  |  | 
3 | COc1cc(Cl)cc(C(=O)N2Cc3nc(NC(=O)c4cnc(C)cc4-c4cc(Cl)ncc4OC)sc3C2)n1 |  |  |  | 0.001 to 0.1 | ≥ 10 | IC50 ([1]; POLθ ATPase, ADP-Glo): 1 to 15 nM
4 | COc1cnc(Cl)cc1-c1cc(C)ncc1C(=O)Nc1nc2c(s1)CN(C(=O)c1cnc(C(F)F)cc1Cl)C2 [Example 36, 2′-chloro-N-(5-(4-chloro-6-(difluoromethyl)nicotinoyl)-5,6-dihydro-4H-pyrrolo[3,4-d]thiazol-2-yl)-S′-methoxy-6-methyl-[4,4′-bipyridine]-3-carboxamide] | 1 to 15 | 0.001 to 0.1 | ≥ 10 |  |  | 
5 | COc1ccc(C#N)cc1-c1cc(C)ncc1C(=O)Nc1nc2c(s1)CN(C(=O)c1ncccc1C)C2 | 1 to 15 | 0.5 to 2 | ≥ 10 |  |  | 
6 | COc1cnc(Cl)cc1-c1cc(C)ncc1C(=O)Nc1nc2c(s1)CN(C(=O)c1ccccn1)C2 | 1 to 15 | 0.1 to 0.25 | ≥ 10 |  |  | 
7 | COc1ccc(C#N)cc1-c1cc(C)ncc1C(=O)Nc1nc2c(s1)CN(S(=O)(=O)c1ccccn1)C2 [Example 308] | 15 to 50 | ≥ 2 | ≥ 10 |  |  | 
8 | COc1cnc(Cl)cc1-c1cc(C)ncc1C(=O)Nc1nc2c(s1)CN(C(=O)c1ccc(OC)c(Cl)n1)C2 [Example 395, 2′-chloro-N-(5-(6-chloro-5-methoxypicolinoyl)-5,6-dihydro-4H-pyrrolo[3,4-d]thiazol-2-yl)-5′-methoxy-6-methyl-[4,4′-bipyridine]-3-carboxamide] |  |  |  | 0.001 to 0.1 | ≥ 10 | IC50 ([1]; POLθ ATPase, ADP-Glo): 1 to 15 nM
9 | COc1cnc(Cl)cc1-c1cc(C)ncc1C(=O)Nc1nc2c(s1)CN(C(=O)c1cnn3c1CCC3)C2 [Example 4, 2′-chloro-N-(5-(5,6-dihydro-4H-pyrrolo[1,2-b]pyrazole-3-carbonyl)-5,6-dihydro-4H-pyrrolo[3,4-d]thiazol-2-yl)-5′-methoxy-6-methyl-[4,4′-bipyridine]-3-carboxamide] | 1 to 15 | 0.001 to 0.1 | 0.001 to 0.5 |  |  | 
10 | COc1cnc(Cl)cc1-c1cc(C)ncc1C(=O)Nc1nc2c(s1)CN(C(=O)c1cnc(C(F)(F)F)cn1)C2 |  |  |  | 0.001 to 0.1 | ≥ 10 | IC50 ([1]; POLθ ATPase, ADP-Glo): 1 to 15 nM
11 | COc1cnc(Cl)cc1-c1cc(C)ncc1C(=O)Nc1nc2c(s1)CN(C(=O)c1c(C)nn(C)c1C(F)F)C2 [Example 6, 2′-chloro-N-(5-(5-(difluoromethyl)-1,3-dimethyl-1H-pyrazole-4-carbonyl)-5,6-dihydro-4H-pyrrolo[3,4-d]thiazol-2-yl)-5′-methoxy-6-methyl-[4,4′-bipyridine]-3-carboxamide] | 1 to 15 | 0.001 to 0.1 | ≥ 10 |  |  | 
12 | COc1cnc(Cl)cc1-c1cc(C)ncc1C(=O)Nc1nc2c(s1)CN(C(=O)c1ccn(C(F)F)n1)C2 [Example 159] | 1 to 15 | 0.1 to 0.25 | ≥ 10 |  |  | 
13 | COc1cnc(Cl)cc1-c1cc(C)ncc1C(=O)Nc1nc2c(s1)CN(C(=O)c1nc(C)co1)C2 [Example 67, 2′-chloro-5′-methoxy-6-methyl-N-(5-(4-methyloxazole-2-carbonyl)-5,6-dihydro-4H-pyrrolo[3,4-d]thiazol-2-yl)-[4,4′-bipyridine]-3-carboxamide] | 1 to 15 | 0.001 to 0.1 | 0.5 to 2 |  |  | 
14 | CCNS(=O)(=O)N1Cc2nc(NC(=O)c3cnc(C)cc3-c3cc(C#N)ccc3OC)sc2C1 [Example 299] | 1 to 15 | 0.5 to 2 | ≥ 10 |  |  | 
15 | COc1nnc(Cl)cc1-c1cc(C)ncc1C(=O)Nc1nc2c(s1)CN(C(=O)c1ccc(C(F)F)cn1)C2 |  |  |  | 0.001 to 0.1 | ≥ 10 | IC50 ([1]; POLθ ATPase, ADP-Glo): 1 to 15 nM
16 | N-(5-(4-Chloro-2-methoxybenzoyl)-5,6-dihydro-4H-pyrrolo[3,4-d]thiazol-2-yl)-4-(5-cyano-2-methoxyphenyl)-6-methylnicotinamide [Example 437] |  |  |  |  |  | IC50 ([1]; POLθ ATPase, ADP-Glo): 1 to 15 nM; IC50 ([2]; 7-day CellTiter-Glo): 0.001 to 0.1 µM; IC50 ([3]; 7-day CellTiter-Glo): ≥ 10 µM

Row | Compound | IC50 [1] [nM] | IC50 [2, 4] [µM] | IC50 [3, 4] [µM] | IC50 [2, 5] [µM] | IC50 [3, 5] [µM] | also measured
17 | COc1cnc(Cl)cc1-c1cc(C)ncc1C(=O)Nc1nc2c(s1)CC(N[C@H]1C[C@H](O)C1)CC2 (stereo partly drawn) [Example 141, 2′-Chloro-N-(6-(((1r,3r)-3-hydroxycyclobutyl)amino)-4,5,6,7-tetrahydrobenzo[d]thiazol-2-yl)-5′-methoxy-6-methyl-[4.4′-bipyridine]-3-carboxamide] | 1 to 15 |  |  |  |  | IC50 ([2]; 7-day viability): 0.001 to 0.1 µM; IC50 ([3]; 7-day viability): ≥ 10 µM
18 | COc1cnc(Cl)cc1-c1cc(C)ncc1C(=O)Nc1nc2c(s1)CN(C(=O)c1c(C)nn(C)c1Cl)C2 [Example 5, 2′-chloro-N-(5-(5-chloro-1,3-dimethyl-1H-pyrazole-4-carbonyl)-5,6-dihydro-4H-pyrrolo[3,4-d]thiazol-2-yl)-5′-methoxy-6-methyl-[4,4′-bipyridine]-3-carboxamide] | 1 to 15 | 0.001 to 0.1 | ≥ 10 |  |  | 
19 | COc1cnc(Cl)cc1-c1cc(C)ncc1C(=O)Nc1nc2c(s1)CN(C(=O)c1ccnc(C)c1)C2 [Example 194] | 1 to 15 | 0.001 to 0.1 | ≥ 10 |  |  | 
20 | COc1cnc(Cl)cc1-c1cc(C)ncc1C(=O)Nc1nc2c(s1)CN(C(=O)c1ncc(C(F)F)nc1OC)C2 [Example 972, 2′-chloro-N-(5-(5-(difluoromethyl)-3-methoxypyrazine-2-carbonyl)-5,6-dihydro-4H-pyrrolo[3,4-d]thiazol-2-yl)-5′-methoxy-6-methyl-[4,4′-bipyridine]-3-carboxamide] |  |  |  | 0.001 to 0.1 | ≥ 10 | 
21 | COc1nc(C(F)(F)F)ccc1C(=O)N1Cc2nc(NC(=O)c3cnc(C)cc3-c3cc(Cl)cnc3OC)sc2C1 [Example 1003, 5-chloro-2-methoxy-N-(5-(2-methoxy-6-(trifluoromethyl)nicotinoyl)-5,6-dihydro-4H-pyrrolo[3,4-d]thiazol-2-yl)-6′-methyl-[3,4′-bipyridine]-3′-carboxamide] |  |  |  | 0.001 to 0.1 | ≥ 10 | 
22 | COc1cnc(Cl)cc1-c1cc(C)ncc1C(=O)Nc1nc2c(s1)CN(C(=O)c1nc(OC)c(C(F)F)cc1C)C2 |  |  |  | 0.001 to 0.1 | ≥ 10 | 
23 | COc1cnc(Cl)cc1-c1cc(C)ncc1C(=O)Nc1nc2c(s1)CN(C(=O)c1ncc(OC(F)F)cc1Cl)C2 |  |  |  | 0.1 to 0.25 | ≥ 10 | 
24 | COc1cnc(Cl)cc1-c1cc(C)ncc1C(=O)Nc1nc2c(s1)CN(C(=O)c1nccc(C(F)F)c1F)C2 [Example 949, 2′-chloro-N-(5-(4-(difluoromethyl)-3-fluoropicolinoyl)-5,6-dihydro-4H-pyrrolo[3,4-d]thiazol-2-yl)-5′-methoxy-6-methyl-[4,4′-bipyridine]-3-carboxamide] |  |  |  | 0.001 to 0.1 | ≥ 10 | 
25 | COc1cnc(Cl)cc1-c1cc(C)ncc1C(=O)Nc1nc2c(s1)CN(C(=O)c1ncc(C(F)F)cc1F)C2 |  |  |  | 0.001 to 0.1 | ≥ 10 | 
26 | COc1cnc(Cl)cc1-c1cc(C)ncc1C(=O)Nc1nc2c(s1)CN(C(=O)c1c(C)cc(C(F)(F)F)nc1OC)C2 [Example 1019, 2′-chloro-5′-methoxy-N-(5-(2-methoxy-4-methyl-6-(trifluoromethyl)nicotinoyl)-5,6-dihydro-4H-pyrrolo[3,4-d]thiazol-2-yl)-6-methyl-[4,4′-bipyridine]-3-carboxamide] |  |  |  | 0.001 to 0.1 | ≥ 10 | 
27 | COc1cnc(Cl)cc1-c1cc(C)ncc1C(=O)Nc1nc2c(s1)CN(C(=O)c1ccc(C(F)(F)F)c(OC)n1)C2 [Example 962, 2′-chloro-5′-methoxy-N-(5-(6-methoxy-5-(trifluoromethyl)picolinoyl)-5,6-dihydro-4H-pyrrolo[3,4-d]thiazol-2-yl)-6-methyl-[4,4′-bipyridine]-3-carboxamide] |  |  |  | 0.001 to 0.1 | 5 to 10 | 
28 | COc1cnc(Cl)cc1-c1cc(C)ncc1C(=O)Nc1nc2c(s1)CN(C(=O)c1nccc(C(F)(F)F)c1F)C2 [Example 961, 2′-chloro-N-(S-(3-fluoro-4-(trifluoromethyl)picolinoyl)-5,6-dihydro-4H-pyrrolo[3,4-d]thiazol-2-yl)-5′-methoxy-6-methyl-[4,4′-bipyridine]-3-carboxamide] |  |  |  | 0.001 to 0.1 | ≥ 10 | 
29 | COc1cnc(Cl)cc1-c1cc(C)ncc1C(=O)Nc1nc2c(s1)CN(C(=O)c1ncc(C)nc1OC)C2 [Example 905, 2′-chloro-5′-methoxy-N-(5-(3-methoxy-5-methylpyrazine-2-carbonyl)-5,6-dihydro-4H-pyrrolo[3,4-d]thiazol-2-yl)-6-methyl-[4,4′-bipyridine]-3-carboxamide] |  |  |  | 0.001 to 0.1 | ≥ 10 | 
30 | COc1cnc(Cl)cc1-c1cc(C)ncc1C(=O)Nc1nc2c(s1)CN(C(=O)c1ccc(C(F)(F)F)nc1OC)C2C (stereo not drawn) [Example 1033, 2′-chloro-5′-methoxy-N-(5-(2-methoxy-6-(trifluoromethyl)nicotinoyl)-4-methyl-5,6-dihydro-4H-pyrrolo[3,4-d]thiazol-2-yl)-6-methyl-[4,4′-bipyridine]-3-carboxamide] |  |  |  | 0.001 to 0.1 | ≥ 10 | 
31 | COc1cnc(Cl)cc1-c1cc(C)ncc1C(=O)Nc1nc2c(s1)CN(C(=O)c1cnc(C(F)(F)F)c(C)c1C)C2 |  |  |  | 0.001 to 0.1 | ≥ 10 | 
